Reference: patent US20140212495A1, “NANOPARTICULATE COMPOSITIONS OF TUBULIN INHIBITOR COMPOUNDS” (Ziopharm Oncology, Inc., priority 2004, published 2014)
Where two headings read alike, the source gives them in different places.

Tests used:
[1] = system: cell cycle progression at metaphase; conditions: cited from earlier work
[2] = 4-week subchronic toxicity study in dogs, D-24851 plasma pharmacokinetics; assay type: in vivo; conditions: for AUC / Cmax / Tmax / half-life / AUC(0-t): dog, plasma, iv; for AUC(0-t): read-out: AUC0-tlast,md
Procedure: Blood samples from all animals were taken at the following times: 1 h, 2 h, 4 h, 8 h, 16 h, 24 h, 36 h and 48 hours after application. The concentration levels of D-24851 were measured using HPLC.

[3] = cited from earlier work
[4] = system: a variety of malignancies (e.g., prostate, brain, breast, pancreas, and colon); conditions: cited from earlier work
tubulin = conditions: cited from earlier work

**Q.** What does the source list for `O=C(Nc1ccncc1)C(=O)c1cn(Cc2ccc(Cl)cc2)c2ccccc12` [Composition D-24851, N-(Pyridin-4-yl)-[1-(4-chlorobenzyl)-indol-3-yl]glyoxylic acid amide]?
**A.** effect on cell cycle progression [1]: selectively blocks cell cycle progression at metaphase; dose dependence of plasma concentrations ([2]; Composition 4 i.v. 2.61, 5.62 and 12.1 mg/kg): depend from the dose; plasma profiles day 1 versus day 27 ([2]; Composition 4 i.v., 4 weeks): of similar magnitude at day 1 and day 27 dosings; CL/f ([2]; Day 1, Composition 4 i.v. 5.62 mg/kg, Males, Meanar n=3): 38.1 mL/min/kg; CL/f ([2]; Day 1, Composition 4 i.v. 12.1 mg/kg, Females, Meanar n=3): 31.1 mL/min/kg; CL/f ([2]; Day 1, Composition 4 i.v. 12.1 mg/kg, Males, Meanar n=3): 29.5 mL/min/kg; CL/f ([2]; Day 27, Composition 4 i.v. 5.62 mg/kg, Males, Meanar n=3): 38.1 mL/min/kg; CL/f ([2]; Day 27, Composition 4 i.v. 12.1 mg/kg, Females, Meanar n=3): 31.1 mL/min/kg; CL/f ([2]; Day 27, Composition 4 i.v. 12.1 mg/kg, Males, Meanar n=3): 29.5 mL/min/kg; AUC ([2]; female, 2.61 mg/kg, Day 1, Composition 4 i.v. 2.61 mg/kg, Females, Meanar n=3, read-out: AUCτ, sd): 3400 ng·h/mL; Cmax ([2]; female, 2.61 mg/kg, Day 1, Composition 4 i.v. 2.61 mg/kg, Females, Meanar n=3, read-out: Cmax, sd): 210 ng/mL; Tmax ([2]; female, 2.61 mg/kg, Day 1, Composition 4 i.v. 2.61 mg/kg, Females, Meanar n=3, read-out: tmax, sd): 1.67 h; half-life ([2]; female, 2.61 mg/kg, Day 1, Composition 4 i.v. 2.61 mg/kg, Females, only for orientating, unsufficient curve fitting): 41 h; AUC ([2]; female, 2.61 mg/kg, Day 27, Composition 4 i.v. 2.61 mg/kg, Females, Meanar n=3, read-out: AUCτ, md): 1410 ng·h/mL; Cmax ([2]; female, 2.61 mg/kg, Day 27, Composition 4 i.v. 2.61 mg/kg, Females, Meanar n=3, read-out: Cmax, md): 148 ng/mL; Tmax ([2]; female, 2.61 mg/kg, Day 27, Composition 4 i.v. 2.61 mg/kg, Females, Meanar n=3, read-out: tmax, md): 2.33 h; half-life ([2]; female, 2.61 mg/kg, Day 27, Composition 4 i.v. 2.61 mg/kg, Females, only for orientating, insufficient curve fitting): 28.3 h; AUC(0-t) ([2]; female, 2.61 mg/kg): 1100 ng·h/mL; AUC ([2]; female, 5.62 mg/kg, Day 1, Composition 4 i.v. 5.62 mg/kg, Females, Meanar n=3, read-out: AUCτ, sd): 3540 ng·h/mL; Cmax ([2]; female, 5.62 mg/kg, Day 1, Composition 4 i.v. 5.62 mg/kg, Females, Meanar n=3, read-out: Cmax, sd): 279 ng/mL; half-life ([2]; female, 5.62 mg/kg, Day 1, Composition 4 i.v. 5.62 mg/kg, Females, only for orientating, unsufficient curve fitting): 20 h; half-life ([2]; female, 5.62 mg/kg, Day 27, Composition 4 i.v. 5.62 mg/kg, Females, Meanar n=3): 14.8 h; AUC ([2]; female, 5.62 mg/kg, Day 27, Composition 4 i.v. 5.62 mg/kg, Females, Meanar n=3, read-out: AUCτ, md): 2960 ng·h/mL; Cmax ([2]; female, 5.62 mg/kg, Day 27, Composition 4 i.v. 5.62 mg/kg, Females, Meanar n=3, read-out: Cmax, md): 315 ng/mL; Tmax ([2]; female, 5.62 mg/kg, Day 27, Composition 4 i.v. 5.62 mg/kg, Females, Meanar n=3, read-out: tmax, md): 2.33 h; AUC(0-t) ([2]; female, 5.62 mg/kg): 2740 ng·h/mL; Tmax ([2]; female, 5.62 mg/kg, read-out: tmax, sd): 2 h; half-life ([2]; female, 12.1 mg/kg, Day 1, Composition 4 i.v. 12.1 mg/kg, Females, Meanar n=3): 11.6 h; AUC ([2]; female, 12.1 mg/kg, Day 1, Composition 4 i.v. 12.1 mg/kg, Females, Meanar n=3, read-out: AUCsd): 8250 ng·h/mL; AUC ([2]; female, 12.1 mg/kg, Day 1, Composition 4 i.v. 12.1 mg/kg, Females, Meanar n=3, read-out: AUCτ, sd): 7670 ng·h/mL; Cmax ([2]; female, 12.1 mg/kg, Day 1, Composition 4 i.v. 12.1 mg/kg, Females, Meanar n=3, read-out: Cmax, sd): 860 ng/mL; Tmax ([2]; female, 12.1 mg/kg, Day 1, Composition 4 i.v. 12.1 mg/kg, Females, Meanar n=3, read-out: tmax, sd): 2.33 h; half-life ([2]; female, 12.1 mg/kg, Day 27, Composition 4 i.v. 12.1 mg/kg, Females, Meanar n=3): 24.2 h; AUC ([2]; female, 12.1 mg/kg, Day 27, Composition 4 i.v. 12.1 mg/kg, Females, Meanar n=3, read-out: AUCτ, md): 4850 ng·h/mL; Cmax ([2]; female, 12.1 mg/kg, Day 27, Composition 4 i.v. 12.1 mg/kg, Females, Meanar n=3, read-out: Cmax, md): 329 ng/mL; Tmax ([2]; female, 12.1 mg/kg, Day 27, Composition 4 i.v. 12.1 mg/kg, Females, Meanar n=3, read-out: tmax, md): 2.67 h; AUC(0-t) ([2]; female, 12.1 mg/kg): 4850 ng·h/mL; Cmax ([2]; male, 2.61 mg/kg, Day 1, Composition 4 i.v. 2.61 mg/kg, Males, Meanar n=3, read-out: Cmax, sd): 147 ng/mL; Tmax ([2]; male, 2.61 mg/kg, Day 1, Composition 4 i.v. 2.61 mg/kg, Males, Meanar n=3, read-out: tmax, sd): 1.67 h; half-life ([2]; male, 2.61 mg/kg, Day 27, Composition 4 i.v. 2.61 mg/kg, Males, Meanar n=3): 40.7 h; AUC ([2]; male, 2.61 mg/kg, Day 27, Composition 4 i.v. 2.61 mg/kg, Males, Meanar n=3, read-out: AUCτ, md): 1740 ng·h/mL; Cmax ([2]; male, 2.61 mg/kg, Day 27, Composition 4 i.v. 2.61 mg/kg, Males, Meanar n=3, read-out: Cmax, md): 224 ng/mL; Tmax ([2]; male, 2.61 mg/kg, Day 27, Composition 4 i.v. 2.61 mg/kg, Males, Meanar n=3, read-out: tmax, md): 1.33 h; AUC(0-t) ([2]; male, 2.61 mg/kg): 1450 ng·h/mL; half-life ([2]; male, 5.62 mg/kg, Day 1, Composition 4 i.v. 5.62 mg/kg, Males, Meanar n=3): 6.63 h; AUC ([2]; male, 5.62 mg/kg, Day 1, Composition 4 i.v. 5.62 mg/kg, Males, Meanar n=3, read-out: AUCsd): 2470 ng·h/mL; AUC ([2]; male, 5.62 mg/kg, Day 1, Composition 4 i.v. 5.62 mg/kg, Males, Meanar n=3, read-out: AUCτ, sd): 2590 ng·h/mL; Cmax ([2]; male, 5.62 mg/kg, Day 1, Composition 4 i.v. 5.62 mg/kg, Males, Meanar n=3, read-out: Cmax, sd): 241 ng/mL; Cmax ([2]; male, 5.62 mg/kg, Day 27, Composition 4 i.v. 5.62 mg/kg, Males, Meanar n=3, read-out: Cmax, md): 186 ng/mL; Tmax ([2]; male, 5.62 mg/kg, Day 27, Composition 4 i.v. 5.62 mg/kg, Males, Meanar n=3, read-out: tmax, md): 2.33 h; half-life ([2]; male, 5.62 mg/kg, Day 27, Composition 4 i.v. 5.62 mg/kg, Males, marked ** (footnote not given)): 5.1 h; AUC(0-t) ([2]; male, 5.62 mg/kg): 1320 ng·h/mL; AUC ([2]; male, 5.62 mg/kg, read-out: AUCτ, md): 1850 ng·h/mL; Tmax ([2]; male, 5.62 mg/kg, read-out: tmax, sd): 2 h; half-life ([2]; male, 12.1 mg/kg, Day 1, Composition 4 i.v. 12.1 mg/kg, Males, Meanar n=3): 8.74 h; AUC ([2]; male, 12.1 mg/kg, Day 1, Composition 4 i.v. 12.1 mg/kg, Males, Meanar n=3, read-out: AUCsd): 6980 ng·h/mL; AUC ([2]; male, 12.1 mg/kg, Day 1, Composition 4 i.v. 12.1 mg/kg, Males, Meanar n=3, read-out: AUCτ, sd): 6870 ng·h/mL; Cmax ([2]; male, 12.1 mg/kg, Day 1, Composition 4 i.v. 12.1 mg/kg, Males, Meanar n=3, read-out: Cmax, sd): 592 ng/mL; Tmax ([2]; male, 12.1 mg/kg, Day 1, Composition 4 i.v. 12.1 mg/kg, Males, Meanar n=3, read-out: tmax, sd): 2.67 h; half-life ([2]; male, 12.1 mg/kg, Day 27, Composition 4 i.v. 12.1 mg/kg, Males, Meanar n=3): 11.9 h; AUC ([2]; male, 12.1 mg/kg, Day 27, Composition 4 i.v. 12.1 mg/kg, Males, Meanar n=3, read-out: AUCτ, md): 5620 ng·h/mL; Cmax ([2]; male, 12.1 mg/kg, Day 27, Composition 4 i.v. 12.1 mg/kg, Males, Meanar n=3, read-out: Cmax, md): 435 ng/mL; Tmax ([2]; male, 12.1 mg/kg, Day 27, Composition 4 i.v. 12.1 mg/kg, Males, Meanar n=3, read-out: tmax, md): 2.67 h; AUC(0-t) ([2]; male, 12.1 mg/kg): 5560 ng·h/mL; neurological symptoms ([3]; animal experiments): No neurological symptoms; in-vivo antineoplastic efficacy ([3]; animals): high in-vivo antineoplastic efficacy; tolerability ([3]; preclinical experiments in rodents): very well tolerated at highly effective doses; antitumor activity in vitro [4]: significant antitumor activity; overlap of binding site with tubulin-binding sites of vincristine or colchicine (tubulin): does not appear to overlap; effect on microtubules (tubulin; in tumor cells, as well as in a cell-free system): destabilizes microtubules
